Data on one compound can be found in paper PMC7076571 (Neoplasia (New York, N.Y.), 2020).

Holding throughout (assay type): biochemical
Experiment [1] concerns the target RBX1 (Homo sapiens, UniProt P62877+Q13616, Q13616:L421E/Q13616:V451E/Q13616:V452K/Q13616:Y455K). Kind of experiment: in vitro CUL1 neddylation assay.
Experiment [2] deals with T1, CUL5 (Homo sapiens, UniProt Q93034+Q9UBF6, Q93034:L407E/Q93034:L439K/Q93034:V440K).
T1 sequence (Q93034 401-780 L407E/L439K/V440K): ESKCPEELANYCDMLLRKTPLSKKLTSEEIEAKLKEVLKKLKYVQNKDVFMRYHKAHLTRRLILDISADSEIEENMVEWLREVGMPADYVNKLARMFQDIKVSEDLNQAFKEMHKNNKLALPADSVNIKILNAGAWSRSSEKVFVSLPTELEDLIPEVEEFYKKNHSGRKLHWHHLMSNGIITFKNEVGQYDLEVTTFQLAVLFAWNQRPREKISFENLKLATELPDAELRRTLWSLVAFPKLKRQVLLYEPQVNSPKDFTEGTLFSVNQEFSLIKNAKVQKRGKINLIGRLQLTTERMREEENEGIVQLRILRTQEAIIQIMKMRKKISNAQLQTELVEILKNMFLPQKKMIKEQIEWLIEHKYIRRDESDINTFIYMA
T1 sequence (Q9UBF6 2-113): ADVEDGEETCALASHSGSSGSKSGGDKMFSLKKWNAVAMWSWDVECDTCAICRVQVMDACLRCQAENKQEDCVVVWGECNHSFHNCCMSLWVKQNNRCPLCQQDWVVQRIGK
Briefly: in vitro CUL5 neddylation assay.

Experiment [3] concerns the target T2, SAG (Homo sapiens, UniProt Q93034+Q9UBF6, Q93034:L407E/Q93034:L439K/Q93034:V440K).
T2 sequence (Q9UBF6 2-113): T1 sequence (Q9UBF6 2-113)
T2 sequence (Q93034 401-780 L407E/L439K/V440K): T1 sequence (Q93034 401-780 L407E/L439K/V440K)
Briefly: in vitro CUL5 neddylation assay.

Chain of RBX1 (Q13616 411-776 L421E/V451E/V452K/Y455K): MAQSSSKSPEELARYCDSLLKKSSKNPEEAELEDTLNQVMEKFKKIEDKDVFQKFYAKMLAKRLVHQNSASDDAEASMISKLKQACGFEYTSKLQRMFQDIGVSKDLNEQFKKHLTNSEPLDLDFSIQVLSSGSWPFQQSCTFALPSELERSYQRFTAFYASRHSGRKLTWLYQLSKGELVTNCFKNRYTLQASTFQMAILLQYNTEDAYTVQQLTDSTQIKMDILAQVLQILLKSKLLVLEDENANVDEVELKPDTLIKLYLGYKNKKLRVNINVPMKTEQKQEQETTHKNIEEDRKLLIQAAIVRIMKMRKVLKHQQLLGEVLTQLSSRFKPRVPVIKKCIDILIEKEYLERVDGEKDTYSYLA
Chain of RBX1 (P62877 whole entry): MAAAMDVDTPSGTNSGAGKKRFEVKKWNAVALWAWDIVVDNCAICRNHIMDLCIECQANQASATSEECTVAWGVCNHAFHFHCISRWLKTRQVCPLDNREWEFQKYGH

A word on the IC50: it is the concentration that inhibits the measured activity by half. Low readings indicate greater potency in that assay, high ones weaker potency in that assay. In the case of `Cc1cc2c(C(C)C)c(O)c(O)c(C=O)c2c(O)c1-c1c(C)cc2c(C(C)C)c(O)c(O)c(C=O)c2c1O` [gossypol], the results for the half-maximal inhibitory concentration (IC50) in experiment [1], in experiment [2] and in experiment [3] were 3.4 µM, 4.25 µM and 4.25 µM, respectively.
